The text below walks through data of EP0372667A1, “2-Hydroxymethyl thiophene derivatives, process for their preparation and their use as medicaments” (SCHERING AKTIENGESELLSCHAFT, priority 1988, dated 1990).

Structures can show the parent of a compound that is named as a salt.

Data set [1] relates to wachen, spontan hypertensiven Ratten. The data set can be described thus: Blood pressure and heart rate in conscious spontaneously hypertensive rats. The note with it: in vivo. From the text:
(§1) Die Messungen von Blutdruck und Herzfrequenz wurden an der spontan hypertensiven Ratte und am narkotisierten, normotensiven Hund durchgeführt (siehe Tabelle 1 und 2).

The subject of data set [2] is narkotisierten, normtensiven Hunden. Description: Blood pressure and heart rate in anaesthetised normotensive dogs. As to conditions: anaesthetised normotensive dog, at a dose giving a similar fall in blood pressure; text summary of Tabelle 2. It counts as in vivo, Beagle-Hunde.
From the text: as §1

In the case of `O=C1c2cc(CO)sc2CCC1CN[C@@H]1CC[C@@H](Oc2ccccc2)[C@@H]1O` (relative stereo) [Beispiel 1, 5-[N-((Z)-2-Hydroxy-(E)-3-phenoxy-cyclopentyl)-aminomethyl]-4,5,6,7-tetrahydro-2-hydroxymethyl-benzothiophen-4-on, Hydrochlorid], the “Herzfrequenz (result in words)” value in data set [1] is recorded as “Herzfrequenzerniedrigung”; in data set [2] it was “praktisch keine Herzfrequenzänderung”.

As to `Cc1cc2c(s1)CCC(CN[C@@H]1CC[C@@H](Oc3ccccc3)[C@@H]1O)C2=O` (relative stereo) [MDL 19744 A], the “Herzfrequenz (result in words)” value in data set [1] and in data set [2] was “ausgeprägten Herzfrequenzsteigerung” each time.
